According to PMC8462401 (Blood, 2021):

Assays:
[1] = target: vascular endothelial growth factor receptor 1 (Homo sapiens, UniProt P17948); assay: BaF3 panel of […] receptor tyrosine kinases, […] inhibition at […]; assay type: cell-based; conditions: BaF3, read-out: % inhibition at 100 nM
[2] = target: T1, MER (Homo sapiens, UniProt Q12866); assay: radiometric kinase assay at ATP Km; assay type: biochemical
T1 sequence (Q12866 21-999): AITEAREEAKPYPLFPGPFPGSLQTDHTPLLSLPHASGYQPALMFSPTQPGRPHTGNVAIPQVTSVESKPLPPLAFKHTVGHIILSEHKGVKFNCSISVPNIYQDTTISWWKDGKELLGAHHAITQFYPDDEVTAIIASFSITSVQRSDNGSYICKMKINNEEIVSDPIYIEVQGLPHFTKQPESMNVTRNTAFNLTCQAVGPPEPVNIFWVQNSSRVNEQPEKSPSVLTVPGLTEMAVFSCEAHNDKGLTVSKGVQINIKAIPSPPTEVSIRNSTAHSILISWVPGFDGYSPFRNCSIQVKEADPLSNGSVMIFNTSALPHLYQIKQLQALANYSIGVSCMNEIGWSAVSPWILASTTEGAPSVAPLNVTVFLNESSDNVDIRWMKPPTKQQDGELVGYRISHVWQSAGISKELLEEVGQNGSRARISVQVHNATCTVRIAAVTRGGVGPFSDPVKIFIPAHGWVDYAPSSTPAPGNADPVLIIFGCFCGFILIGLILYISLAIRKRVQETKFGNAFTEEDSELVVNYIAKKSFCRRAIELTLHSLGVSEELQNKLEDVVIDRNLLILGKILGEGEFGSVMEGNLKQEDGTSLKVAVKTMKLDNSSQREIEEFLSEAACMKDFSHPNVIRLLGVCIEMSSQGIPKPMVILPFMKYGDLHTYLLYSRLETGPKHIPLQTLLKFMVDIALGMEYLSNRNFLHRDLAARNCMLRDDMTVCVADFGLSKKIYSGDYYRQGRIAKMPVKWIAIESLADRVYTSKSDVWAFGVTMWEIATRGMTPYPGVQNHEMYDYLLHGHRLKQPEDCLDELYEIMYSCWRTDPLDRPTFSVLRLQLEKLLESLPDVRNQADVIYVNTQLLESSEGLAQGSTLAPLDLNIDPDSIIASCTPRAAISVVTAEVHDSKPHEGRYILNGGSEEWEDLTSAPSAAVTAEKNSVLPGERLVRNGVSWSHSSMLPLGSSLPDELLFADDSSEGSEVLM

[3] = target: FGFR3 (Homo sapiens, UniProt P22607); assay: BaF3 panel of […] receptor tyrosine kinases, […] inhibition at […]; assay type: cell-based; conditions: BaF3, read-out: % inhibition at 100 nM
Chain of FGFR3 (P22607 23-806): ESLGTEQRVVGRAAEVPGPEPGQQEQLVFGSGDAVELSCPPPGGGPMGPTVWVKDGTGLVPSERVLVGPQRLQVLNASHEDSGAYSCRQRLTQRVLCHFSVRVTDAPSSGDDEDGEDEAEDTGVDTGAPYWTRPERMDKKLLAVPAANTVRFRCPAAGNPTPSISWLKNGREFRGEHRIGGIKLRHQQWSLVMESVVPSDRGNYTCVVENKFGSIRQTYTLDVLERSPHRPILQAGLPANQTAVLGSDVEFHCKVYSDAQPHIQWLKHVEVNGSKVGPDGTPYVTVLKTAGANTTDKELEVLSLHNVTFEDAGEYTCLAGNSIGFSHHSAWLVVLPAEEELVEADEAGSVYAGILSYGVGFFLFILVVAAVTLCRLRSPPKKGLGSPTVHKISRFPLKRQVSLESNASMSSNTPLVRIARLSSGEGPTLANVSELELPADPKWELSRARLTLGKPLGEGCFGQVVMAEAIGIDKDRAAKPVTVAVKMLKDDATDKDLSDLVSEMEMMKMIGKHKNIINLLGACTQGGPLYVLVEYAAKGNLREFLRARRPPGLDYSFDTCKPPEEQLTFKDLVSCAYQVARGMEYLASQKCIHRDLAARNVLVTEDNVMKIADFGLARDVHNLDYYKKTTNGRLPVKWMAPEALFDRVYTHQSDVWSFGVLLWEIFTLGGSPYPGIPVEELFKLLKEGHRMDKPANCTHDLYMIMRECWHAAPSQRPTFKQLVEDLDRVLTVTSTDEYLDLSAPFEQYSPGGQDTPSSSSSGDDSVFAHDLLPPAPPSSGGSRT

Chain of vascular endothelial growth factor receptor 1 (P17948 27-1338): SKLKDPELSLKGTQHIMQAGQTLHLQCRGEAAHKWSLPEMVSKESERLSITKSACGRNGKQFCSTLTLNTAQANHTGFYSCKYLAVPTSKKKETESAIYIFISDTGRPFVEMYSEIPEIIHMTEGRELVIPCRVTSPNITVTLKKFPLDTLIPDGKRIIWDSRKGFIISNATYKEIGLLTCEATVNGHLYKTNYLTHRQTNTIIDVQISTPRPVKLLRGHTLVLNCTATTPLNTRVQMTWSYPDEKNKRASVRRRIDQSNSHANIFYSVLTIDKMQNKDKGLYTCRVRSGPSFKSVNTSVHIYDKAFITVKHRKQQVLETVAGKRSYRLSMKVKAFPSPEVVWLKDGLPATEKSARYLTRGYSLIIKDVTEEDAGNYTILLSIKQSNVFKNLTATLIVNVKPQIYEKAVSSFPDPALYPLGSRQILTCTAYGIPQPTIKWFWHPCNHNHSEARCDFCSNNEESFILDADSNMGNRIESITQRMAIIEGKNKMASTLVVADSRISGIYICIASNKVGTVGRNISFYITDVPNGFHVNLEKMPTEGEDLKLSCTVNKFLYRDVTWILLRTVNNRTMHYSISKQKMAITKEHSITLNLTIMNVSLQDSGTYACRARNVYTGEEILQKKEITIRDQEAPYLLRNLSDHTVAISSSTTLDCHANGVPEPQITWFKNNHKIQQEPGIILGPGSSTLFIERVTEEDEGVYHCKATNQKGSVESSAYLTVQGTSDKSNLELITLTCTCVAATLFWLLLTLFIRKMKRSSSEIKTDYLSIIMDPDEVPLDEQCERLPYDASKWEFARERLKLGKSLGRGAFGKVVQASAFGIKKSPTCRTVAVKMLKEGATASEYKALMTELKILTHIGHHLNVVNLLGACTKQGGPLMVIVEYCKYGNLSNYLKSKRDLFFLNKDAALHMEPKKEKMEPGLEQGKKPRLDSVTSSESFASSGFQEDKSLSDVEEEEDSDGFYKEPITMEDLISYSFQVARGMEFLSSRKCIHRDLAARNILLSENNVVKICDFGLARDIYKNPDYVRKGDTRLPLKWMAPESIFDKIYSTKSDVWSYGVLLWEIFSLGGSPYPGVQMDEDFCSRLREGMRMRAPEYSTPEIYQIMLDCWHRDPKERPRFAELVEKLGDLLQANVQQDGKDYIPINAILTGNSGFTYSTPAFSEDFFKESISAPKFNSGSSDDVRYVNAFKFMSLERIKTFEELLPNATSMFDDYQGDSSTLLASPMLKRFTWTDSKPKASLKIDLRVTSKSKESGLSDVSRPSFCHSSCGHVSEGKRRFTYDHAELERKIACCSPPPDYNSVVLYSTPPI

Nc1ncc(-c2cnn(C3CCNCC3)c2)cc1-c1nnc(CC2CC2)o1 [SLC-391, 3-(5-(cyclopropylmethyl)-1,3,4-oxadiazole-2-yl)-5-(1-(piperidine-4-yl)-1H-pyrazole-4-yl)pyridine-2-amine]
inhibition at 0.1 µM [1]: 60% | IC50 [2]: 44 nM | inhibition at 0.1 µM [3]: 60%
